A compilation of properties of binary mixtures (doi:10.1021/je100671v)

Assay: xn = mol fraction of the nth substance listed
Conditions: 101.3 kPa

CCCCCCCC(=O)[O-].c1c[nH+]c[nH]1 + CC#N
viscosity [mPa·s]
Conditions	x2 = 0	x2 = 0.1044	x2 = 0.1986	x2 = 0.298	x2 = 0.4005	x2 = 0.499	x2 = 0.5995	x2 = 0.6924	x2 = 0.7988	x2 = 0.8996
293.15 K	88.5	66	50.42	–	25.96	–	–	5.8	2.747	–
298.15 K	71.3	54.3	41.88	32	22.7	16.11	10	6.3	3.3	1.199
303.15 K	–	–	35.3	27.47	20.17	14.67	–	5.6	2.402	1.21
308.15 K	45.3	37	30.04	23.68	17.89	–	8.4	5.5	2.808	1.241
313.15 K	36.92	31.4	26.1	20.83	15.6	11.4	7.4	4.4	2.23	1.397
318.15 K	30.56	26.31	22.3	–	–	10.7	7.51	5.1	3.1	1.77
323.15 K	25.33	22.52	19.55	16.21	13.2	–	–	5.38	3.223	1.6

CCCCCCCC(=O)[O-].c1c[nH+]c[nH]1 + CCCCCCCCO
viscosity [mPa·s]
Conditions	x2 = 0	x2 = 0.1011	x2 = 0.1999	x2 = 0.2991	x2 = 0.4	x2 = 0.5007	x2 = 0.6005	x2 = 0.6999	x2 = 0.799	x2 = 0.8997
293.15 K	88.5	78	64.4	51.03	–	30.85	–	18	13.4	10.5
298.15 K	71.3	63.2	52.31	41.9	–	–	–	15.39	11.7	–
303.15 K	56.48	50.26	42.2	34.44	27.5	21.67	–	13.24	10	8.33
308.15 K	45.3	–	34.63	28.56	23.23	18.76	14.95	–	9.4	7.64
313.15 K	36.92	33.14	28.5	23.44	19.4	15.57	–	9.79	7.5	5.94
318.15 K	30.56	–	23.63	19.8	16.4	13.05	10.7	8.46	–	–
323.15 K	25.33	–	20.17	–	14.21	11.6	9.4	7.48	5.9	–

CCCCCCCC(=O)[O-].c1c[nH+]c[nH]1 + CCO
viscosity [mPa·s]
Conditions	x2 = 0	x2 = 0.1043	x2 = 0.1984	x2 = 0.301	x2 = 0.4	x2 = 0.4786	x2 = 0.5999	x2 = 0.7006	x2 = 0.7999	x2 = 0.8989
293.15 K	88.5	68.7	–	–	29.8	22.9	–	10.32	6.03	3.236
298.15 K	71.3	55.78	44.5	34	25.5	20	13.3	9.32	5.47	–
303.15 K	56.48	–	36.53	28.9	22.3	17.8	–	8.4	4.93	–
308.15 K	45.3	36.81	30.43	24.8	19.9	16.4	11.4	7.77	4.54	2.471
313.15 K	–	31	26.09	–	17.2	14	–	–	4.19	2.278
318.15 K	30.56	26.2	22.4	18.8	15.3	12.6	–	6.3	3.96	–
323.15 K	25.33	22.3	19.6	16.7	14.1	12	8.9	6.4	4.43	–

CCCCCCCC(=O)[O-].c1c[nH+]c[nH]1 + O
viscosity [mPa·s]
Conditions	x2 = 0	x2 = 0.0989	x2 = 0.1964	x2 = 0.3042	x2 = 0.4091	x2 = 0.5119	x2 = 0.6017	x2 = 0.6643	x2 = 0.7995	x2 = 0.8154
293.15 K	88.5	67.9	58.6	–	–	45.7	–	34.9	22.18	20.63
298.15 K	71.3	54.06	46.3	43.3	41.1	–	32.99	29.09	–	17.59
303.15 K	56.48	41.7	36.57	–	33	30.4	27.23	–	16	14.75
308.15 K	45.3	33.19	29.22	27.6	26.5	25	22.3	20.32	13.52	12.62
313.15 K	36.92	27.32	–	22.8	21.89	20.82	18.94	17.17	11.72	–
318.15 K	30.56	–	20.39	–	18.6	17.87	–	14.9	10.4	–
323.15 K	–	–	17.55	–	16.17	15.72	14.35	13.4	9.76	–

CC#N + c1c[nH+]c[nH]1.CCCCCCCC(=O)[O-]
x1 = 1
Conditions	viscosity [mPa·s]
293.15 K	0.35
303.15 K	0.325
308.15 K	0.292
313.15 K	0.279
318.15 K	0.245

CCCCCCCCO + c1c[nH+]c[nH]1.CCCCCCCC(=O)[O-]
x1 = 1
Conditions	viscosity [mPa·s]
298.15 K	7.84
303.15 K	6.42
308.15 K	5.34
313.15 K	4.66
318.15 K	3.7
323.15 K	2.84

CCO + c1c[nH+]c[nH]1.CCCCCCCC(=O)[O-]
x1 = 1
Conditions	viscosity [mPa·s]
298.15 K	1.1
308.15 K	0.91
313.15 K	0.83
318.15 K	0.72
323.15 K	0.615

O + c1c[nH+]c[nH]1.CCCCCCCC(=O)[O-]
x1 = 1
Conditions	viscosity [mPa·s]
298.15 K	0.89
303.15 K	0.797
323.15 K	0.556
